Data published in patent US20250136634A1, “CAP ANALOG AND USE THEREOF” (SHANGHAI HONGENE BIOTECH CORPORATION, priority 2021, published 2025).

Legend:
RIG-I = target: T1, RIG-I (Homo sapiens, UniProt O95786); assay: Binding ability of mRNA to RIG-I, RNA co-immunoprecipitation and qPCR in Hela cells; conditions: 2 ug mRNA/well, cells collected after 24 hours, relative to ^m7GpppApG cap, mean±SD
T1 construct: endogenous in cells; host or cells: Hela cells (ATCC CCL-2)
T1 sequence (O95786 1-925): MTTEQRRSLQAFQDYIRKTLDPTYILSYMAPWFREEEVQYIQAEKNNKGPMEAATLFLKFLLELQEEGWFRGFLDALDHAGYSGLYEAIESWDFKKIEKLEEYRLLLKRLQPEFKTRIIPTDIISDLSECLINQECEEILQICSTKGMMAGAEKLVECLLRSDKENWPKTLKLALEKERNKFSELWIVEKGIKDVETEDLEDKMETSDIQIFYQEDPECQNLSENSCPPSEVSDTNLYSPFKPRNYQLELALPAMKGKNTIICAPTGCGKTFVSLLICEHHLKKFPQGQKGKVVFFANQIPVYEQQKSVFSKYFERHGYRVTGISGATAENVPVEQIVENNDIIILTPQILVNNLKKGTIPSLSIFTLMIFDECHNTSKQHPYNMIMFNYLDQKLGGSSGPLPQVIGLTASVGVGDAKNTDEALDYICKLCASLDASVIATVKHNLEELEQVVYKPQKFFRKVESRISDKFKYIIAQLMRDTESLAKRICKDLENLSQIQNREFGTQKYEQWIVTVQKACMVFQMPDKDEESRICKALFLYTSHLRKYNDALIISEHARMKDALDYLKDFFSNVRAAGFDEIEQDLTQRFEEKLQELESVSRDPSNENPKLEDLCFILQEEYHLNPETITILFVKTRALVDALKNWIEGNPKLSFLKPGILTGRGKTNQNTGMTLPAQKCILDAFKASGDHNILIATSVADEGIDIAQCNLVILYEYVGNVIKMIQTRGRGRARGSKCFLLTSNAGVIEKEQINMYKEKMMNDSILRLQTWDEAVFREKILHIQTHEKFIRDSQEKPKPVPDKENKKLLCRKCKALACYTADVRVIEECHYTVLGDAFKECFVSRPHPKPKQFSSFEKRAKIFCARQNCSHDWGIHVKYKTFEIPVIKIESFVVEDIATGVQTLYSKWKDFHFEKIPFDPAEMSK
Protocol: In this example, Hela cells (ATCC CCL-2) were transfected with luciferase mRNAs (Gaussia luciferase) comprising various initial cap structures (the initial cap nucleotide structures comprised are: ^m7GpppApG, ^m7GpppA2′Ome pG, ^m7G3′OmepppA2′O-ethylpG, ^m7G2′OmepppA2′O-ethylpG, ^m7G3′Omeppp A2′O-MOEpG, ^m7G2′O-mepppA2′O-MOEpG, ^m7Gppp(N6-methyladenine)2′O-MOEpG, ^m7G2′OmepppC2′O-ethylpC, ^m7G3′OmepppA2′O-MOEpU), and collected after 24 hours. The intracellular proteins RIG-I and IFIT1 were co-precipitated with the RNAs to which they bound by RNA co-immunoprecipation. The mRNAs were subjected to reverse transcription and real-time quantitative PCR, and the relative abundance of the mRNAs is proportional to their RIG-I and IFIT1 binding ability.
(§1) Hela cells were seeded at a cell density of 4×10^5/well in 6-well plates, and transfected with mRNA at 2 ug mRNA/well when the cell density reached about 80% using Lipofectamine MessengerMAX Transfection Reagent (Invitrogen) according to the transfection steps in the instruction. The cells were collected after 24 hours, and incubated at RT for 10 minutes after the addition of fixative solution. The reaction was then terminated by adding glycine at a suitable concentration, and the cells were collected by centrifugation. Appropriate amount of lysis solution was added to the cells. The mixture was incubated on ice for 30 minutes and centrifuged to collect supernatant. Appropriate amount of (2-4 ng) anti-RIG-I and IFIT1 antibodies (Abcam) were added to the supernatant, and the mixture was incubated overnight at 4° C. on a shaker, and then 20 ul Protein A/G magnetic beads were added and incubated for 2 hours at 4° C. on a shaker. The beads were rinsed using magnetic grate for 5 minutes and repeated 3 times. After that, 1 mL TRIzol reagent was added to the magnetic beads to extract RNAs which were then reverse transcribed into cDNAs. The expression of related genes was detected using real-time quantitative fluorescent PCR with B-actin as the internal reference. The detection of each gene was repeated 3 times, and the result of the expression of each gene is expressed as the relative value to the result of ^m7GpppApG cap.
The intracellular proteins RIG-I and IFIT1 were co-precipitated with the RNAs to which they bound by RNA co-immunoprecipitation. The mRNAs were subjected to reverse transcription and real-time quantitative PCR, and the relative abundance of the mRNAs is proportional to their RIG-I and IFIT1 binding ability.
as §1, with “(Invitrogen) as the transfection reagent” for “(Invitrogen)”, “was” for “was then”

T7 RNA polymerase = T7 RNA polymerase (Escherichia phage T7, UniProt P00573); assay: Capping efficiency of mRNA from T7 in vitro transcription, RNaseH cleavage and LC-MS (Example 2); type: biochemical; conditions: Example 2, T7 RNA polymerase IVT at 37° C. for 2 hs
Sequence of T7 RNA polymerase (P00573 whole entry): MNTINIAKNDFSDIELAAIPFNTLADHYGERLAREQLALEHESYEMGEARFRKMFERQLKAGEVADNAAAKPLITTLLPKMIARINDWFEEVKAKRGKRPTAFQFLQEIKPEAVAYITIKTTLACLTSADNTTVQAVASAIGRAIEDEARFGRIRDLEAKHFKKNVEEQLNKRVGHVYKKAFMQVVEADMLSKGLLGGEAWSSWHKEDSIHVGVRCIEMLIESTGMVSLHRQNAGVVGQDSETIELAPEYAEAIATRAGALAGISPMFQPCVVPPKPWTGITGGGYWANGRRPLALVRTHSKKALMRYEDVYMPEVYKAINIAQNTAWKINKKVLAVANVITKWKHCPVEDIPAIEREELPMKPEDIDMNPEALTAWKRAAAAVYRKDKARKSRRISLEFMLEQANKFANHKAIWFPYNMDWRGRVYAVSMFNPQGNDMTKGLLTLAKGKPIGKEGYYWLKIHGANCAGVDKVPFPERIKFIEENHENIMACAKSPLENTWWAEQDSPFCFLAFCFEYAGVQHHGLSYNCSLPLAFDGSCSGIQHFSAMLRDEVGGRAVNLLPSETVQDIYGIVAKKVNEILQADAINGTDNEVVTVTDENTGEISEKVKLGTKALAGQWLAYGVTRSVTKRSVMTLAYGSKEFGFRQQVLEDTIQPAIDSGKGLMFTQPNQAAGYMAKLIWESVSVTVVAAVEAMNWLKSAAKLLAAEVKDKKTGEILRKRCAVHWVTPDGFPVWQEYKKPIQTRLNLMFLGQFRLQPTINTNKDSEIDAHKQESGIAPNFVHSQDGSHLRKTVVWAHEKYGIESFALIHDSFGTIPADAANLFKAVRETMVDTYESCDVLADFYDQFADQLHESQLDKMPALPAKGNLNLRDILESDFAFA
Description: (5) Treatment with Antarctic Phosphatase:

Row | Substance | Relative binding ability to RIG (RIG-I; Example 2) | Capping efficiency (T7 RNA polymerase) [%] | Relative binding ability to RIG (RIG-I; Example 3 (IVT at 50° C.))
1 | ^m7G2′OmepppA2′O-MOEpG | 0.69 ± 0.01 | 88 | –
2 | ^m7G2′OmepppA2′O-ethylpG | 0.82 ± 0.03 | 92 | –
3 | ^m7G2′OmepppC2′O-ethylpC | 0.93 ± 0.08 | 92 | –
4 | ^m7G3′OmepppA2′O-MOEpG | 0.78 ± 0.07 | 89 | –
5 | ^m7G3′OmepppA2′O-MOEpU | 1.12 ± 0.01 | 93 | –
6 | ^m7G3′OmepppA2′O-ethylpG | 0.87 ± 0.11 | 94 | –
7 | ^m7GAlpha-L-LNApppA2′O-ethyl pG | – | – | 0.52 ± 0.01
8 | ^m7GBeta-D-LNApppA2′O-MOEpG | – | – | 0.48 ± 0.02
9 | ^m7Gppp(N6-methyladenine)2′O-MOEpG | 0.77 ± 0.14 | 84 | –
10 | ^m7GpppA2′Ome pG [reference compound] | 0.86 ± 0.06 | 97 | 0.88 ± 0.11
11 | ^m7GpppApG [reference compound] | 1 ± 0.23 | 98 | 1 ± 0.28
